Activity calls are given as the source filed them. The calls are words filed in the database; no cut-off is given here.
How the values were obtained:
MDA-MB-231 [1] = test: Antiproliferative activity against human MDA-MB-231 cells assessed as cell growth inhibition incubated for 4 hrs by MTT assay; type: functional, cell-based; conditions: MDA-MB-231, 4 h
HT-29 = test: Antiproliferative activity against human HT-29 cells assessed as cell growth inhibition incubated for 4 hrs by MTT assay; type: functional, cell-based; conditions: HT-29, 4 h
A549 = test: Antiproliferative activity against human A549 cells assessed as cell growth inhibition incubated for 4 hrs by MTT assay; type: functional, cell-based; conditions: A549, 4 h
[2] = Selectivity index, ratio of IC50 for antiproliferative activity against human HT-29 cells to IC50 for antiproliferative activity against human MDA-MB-231 cells; type: functional
[3] = Selectivity index, ratio of IC50 for antiproliferative activity against human A549 cells to IC50 for antiproliferative activity against human MDA-MB-231 cells; type: functional
MDA-MB-231 [4] = test: Inhibition of colony formation in human MDA-MB-231 cells upto 5 uM for 9 days by crystal violet staining based assay; type: functional, cell-based; conditions: time 9.0 day
MDA-MB-231 [5] = test: Induction of cell cycle arrest in human MDA-MB-231 cells assessed as accumulation of cells at G0/G1 phase at 1 uM incubated for 48 hrs by propidium iodide staining based flow cytometry (reference value: 90.25%); type: functional
MDA-MB-231 [6] = test: Induction of cell cycle arrest in human MDA-MB-231 cells assessed as accumulation of cells at S phase at 1 uM incubated for 48 hrs by propidium iodide staining based flow cytometry (reference value: 3.62%); type: functional
MDA-MB-231 [7] = test: Induction of cell cycle arrest in human MDA-MB-231 cells assessed as accumulation of cells at G2/M phase at 1 uM incubated for 48 hrs by propidium iodide staining based flow cytometry (reference value: 3.61%); type: functional
MDA-MB-231 [8] = test: Induction of cell cycle arrest in human MDA-MB-231 cells assessed as accumulation of cells at G0/G1 phase at 5 uM incubated for 48 hrs by propidium iodide staining based flow cytometry (reference value: 90.25%); type: functional
MDA-MB-231 [9] = test: Induction of cell cycle arrest in human MDA-MB-231 cells assessed as accumulation of cells at S phase at 5 uM incubated for 48 hrs by propidium iodide staining based flow cytometry (reference value: 3.62%); type: functional
MDA-MB-231 [10] = test: Induction of cell cycle arrest in human MDA-MB-231 cells assessed as accumulation of cells at G2/M phase at 5 uM incubated for 48 hrs by propidium iodide staining based flow cytometry (reference value: 3.61%); type: functional
MDA-MB-231 [11] = test: Induction of cell cycle arrest in human MDA-MB-231 cells assessed as accumulation of cells at M1 phase at 1 uM incubated for 48 hrs by propidium iodide staining based flow cytometry (reference value: 7.1%); type: functional
MDA-MB-231 [12] = test: Induction of cell cycle arrest in human MDA-MB-231 cells assessed as accumulation of cells at M1 phase at 5 uM incubated for 48 hrs by propidium iodide staining based flow cytometry (reference value: 7.1%); type: functional
MDA-MB-231 [13] = test: Induction of cell cycle arrest in human MDA-MB-231 cells assessed as accumulation of cells at G0/G1 phase at 10 uM incubated for 48 hrs by propidium iodide staining based flow cytometry (reference value: 90.25%); type: functional
MDA-MB-231 [14] = test: Induction of cell cycle arrest in human MDA-MB-231 cells assessed as accumulation of cells at S phase at 10 uM incubated for 48 hrs by propidium iodide staining based flow cytometry (reference value: 3.62%); type: functional
MDA-MB-231 [15] = test: Induction of cell cycle arrest in human MDA-MB-231 cells assessed as accumulation of cells at G2/M phase at 10 uM incubated for 48 hrs by propidium iodide staining based flow cytometry (reference value: 3.61%); type: functional
MDA-MB-231 [16] = test: Induction of cell cycle arrest in human MDA-MB-231 cells assessed as accumulation of cells at M1 phase at 10 uM incubated for 48 hrs by propidium iodide staining based flow cytometry (reference value: 7.1%); type: functional
MDA-MB-231 [17] = test: Induction of cell cycle arrest in human MDA-MB-231 cells assessed as accumulation of cells at G0/G1 phase at 20 uM incubated for 48 hrs by propidium iodide staining based flow cytometry (reference value: 90.25%); type: functional
MDA-MB-231 [18] = test: Induction of cell cycle arrest in human MDA-MB-231 cells assessed as accumulation of cells at S phase at 20 uM incubated for 48 hrs by propidium iodide staining based flow cytometry (reference value: 3.62%); type: functional
MDA-MB-231 [19] = test: Induction of cell cycle arrest in human MDA-MB-231 cells assessed as accumulation of cells at G2/M phase at 20 uM incubated for 48 hrs by propidium iodide staining based flow cytometry (reference value: 3.61%); type: functional
MDA-MB-231 [20] = test: Induction of cell cycle arrest in human MDA-MB-231 cells assessed as accumulation of cells at M1 phase at 20 uM incubated for 48 hrs by propidium iodide staining based flow cytometry (reference value: 7.1%); type: functional
MDA-MB-231 [21] = test: Induction of apoptosis in human MDA-MB-231 cells assessed as increase in ROS levels at 10 uM measured upto 48 hrs by DCFH-DA staining based flow cytometry assay; type: functional, cell-based
MDA-MB-231 [22] = test: Induction of apoptosis in human MDA-MB-231 cells assessed as increase in ROS levels at 10 uM measured at 12 hrs by DCFH-DA staining based flow cytometry assay; type: functional, cell-based
MDA-MB-231 [23] = test: Induction of apoptosis in human MDA-MB-231 cells assessed as viable cells at 1 uM measured for 48 hrs by Annexin V-FITC/PI staining based flow cytometry assay (reference value: 93.7%); type: functional; conditions: read-out: Activity
MDA-MB-231 [24] = test: Induction of apoptosis in human MDA-MB-231 cells assessed as early apoptotic cells at 1 uM measured for 48 hrs by Annexin V-FITC/PI staining based flow cytometry assay (reference value: 0.49%); type: functional
MDA-MB-231 [25] = test: Induction of apoptosis in human MDA-MB-231 cells assessed as late apoptotic cells at 1 uM measured for 48 hrs by Annexin V-FITC/PI staining based flow cytometry assay (reference value: 5.39%); type: functional
MDA-MB-231 [26] = test: Induction of apoptosis in human MDA-MB-231 cells assessed as necrotic cells at 1 uM measured for 48 hrs by Annexin V-FITC/PI staining based flow cytometry assay (reference value: 0.43%); type: functional
MDA-MB-231 [27] = test: Induction of apoptosis in human MDA-MB-231 cells assessed as decrease in Bcl-2 level upto 20 uM incubated for 48 hrs by Western blot analysis; type: functional, cell-based
MDA-MB-231 [28] = test: Induction of apoptosis in human MDA-MB-231 cells assessed as increase in Bax level upto 20 uM incubated for 48 hrs by Western blot analysis; type: functional, cell-based
MDA-MB-231 [29] = test: Induction of apoptosis in human MDA-MB-231 cells assessed as upregulation of cleaved caspase-3 level upto 20 uM incubated for 48 hrs by Western blot analysis; type: functional, cell-based
MDA-MB-231 [30] = test: Induction of apoptosis in human MDA-MB-231 cells assessed as upregulation of PARP level upto 20 uM incubated for 48 hrs by Western blot analysis; type: functional, cell-based
MDA-MB-231 [31] = test: Induction of apoptosis in human MDA-MB-231 cells assessed as viable cells at 5 uM measured for 48 hrs by Annexin V-FITC/PI staining based flow cytometry assay (reference value: 93.7%); type: functional; conditions: read-out: Activity
MDA-MB-231 [32] = test: Induction of apoptosis in human MDA-MB-231 cells assessed as early apoptotic cells at 5 uM measured for 48 hrs by Annexin V-FITC/PI staining based flow cytometry assay (reference value: 0.49%); type: functional
MDA-MB-231 [33] = test: Induction of apoptosis in human MDA-MB-231 cells assessed as late apoptotic cells at 5 uM measured for 48 hrs by Annexin V-FITC/PI staining based flow cytometry assay (reference value: 5.39%); type: functional
MDA-MB-231 [34] = test: Induction of apoptosis in human MDA-MB-231 cells assessed as necrotic cells at 5 uM measured for 48 hrs by Annexin V-FITC/PI staining based flow cytometry assay (reference value: 0.43%); type: functional
MDA-MB-231 [35] = test: Induction of apoptosis in human MDA-MB-231 cells assessed as viable cells at 10 uM measured for 48 hrs by Annexin V-FITC/PI staining based flow cytometry assay (reference value: 93.7%); type: functional; conditions: read-out: Activity
MDA-MB-231 [36] = test: Induction of apoptosis in human MDA-MB-231 cells assessed as early apoptotic cells at 10 uM measured for 48 hrs by Annexin V-FITC/PI staining based flow cytometry assay (reference value: 0.49%); type: functional
MDA-MB-231 [37] = test: Induction of apoptosis in human MDA-MB-231 cells assessed as late apoptotic cells at 13.5 uM measured for 48 hrs by Annexin V-FITC/PI staining based flow cytometry assay (reference value: 5.39%); type: functional
MDA-MB-231 [38] = test: Induction of apoptosis in human MDA-MB-231 cells assessed as necrotic cells at 10 uM measured for 48 hrs by Annexin V-FITC/PI staining based flow cytometry assay (reference value: 0.43%); type: functional

COc1ccccc1/C=C/C(=O)NCCNC(=O)[C@H]1CC[C@H]2[C@@H]3CCC4=CC(=O)CC[C@]4(C)[C@H]3CC[C@]12C
IC50 (MDA-MB-231 [1]): 0.42 µM
IC50 (HT-29): 11.7 µM
IC50 (A549): 30.9 µM
Ratio IC50 [2]: 22.5
Ratio IC50 [3]: 73.5
inhibition (MDA-MB-231 [4]): Active
Activity (MDA-MB-231 [5]): 84.13%
Activity (MDA-MB-231 [6]): 2.52%
Activity (MDA-MB-231 [7]): 12.11%
Activity (MDA-MB-231 [8]): 69.83%
Activity (MDA-MB-231 [9]): 15.23%
Activity (MDA-MB-231 [10]): 12.25%
Activity (MDA-MB-231 [11]): 13.8%
Activity (MDA-MB-231 [12]): 16%
Activity (MDA-MB-231 [13]): 55.27%
Activity (MDA-MB-231 [14]): 28.07%
Activity (MDA-MB-231 [15]): 13.15%
Activity (MDA-MB-231 [16]): 22.8%
Activity (MDA-MB-231 [17]): 47.17%
Activity (MDA-MB-231 [18]): 37.22%
Activity (MDA-MB-231 [19]): 10.01%
Activity (MDA-MB-231 [20]): 37.4%
Activity (MDA-MB-231 [21]): Active
Activity (MDA-MB-231 [22]): Active
viability at 1 µM (MDA-MB-231 [23]): 84%
Activity (MDA-MB-231 [24]): 9.24%
Activity (MDA-MB-231 [25]): 6.63%
Activity (MDA-MB-231 [26]): 0.16%
Activity (MDA-MB-231 [27]): Active
Activity (MDA-MB-231 [28]): Active
Activity (MDA-MB-231 [29]): Active
Activity (MDA-MB-231 [30]): Active
viability at 5 µM (MDA-MB-231 [31]): 78.3%
Activity (MDA-MB-231 [32]): 17.1%
Activity (MDA-MB-231 [33]): 4.35%
Activity (MDA-MB-231 [34]): 0.16%
viability at 10 µM (MDA-MB-231 [35]): 41.1%
Activity (MDA-MB-231 [36]): 45%
Activity (MDA-MB-231 [37]): 13.5%
Activity (MDA-MB-231 [38]): 0.4%

Source: ChEMBL document CHEMBL5241053, “Discovery of novel steroidal-chalcone hybrids with potent and selective activity against triple-negative breast cancer” (Bioorg Med Chem, 2020)
